Laboratory results: the NIST ThermoML archive (doi:10.1021/je900596d)

Conditions: 353.12 K, Fluid (supercritical or subcritical phases), Vibrating tube method

FC(F)=C(F)C(F)(F)F [hexafluoropropene]
Conditions	mass density [kg/m3]
251.4 kPa	13.222
262.8 kPa	13.844
272.6 kPa	14.383
303.9 kPa	16.11
313 kPa	16.554
322.1 kPa	17.107
330.9 kPa	17.558
340 kPa	18.069
349.1 kPa	18.584
358.7 kPa	19.177
369.1 kPa	19.754
379.1 kPa	20.272
389.1 kPa	20.831
398.8 kPa	21.42
402.9 kPa	21.597
407.6 kPa	21.905
413.1 kPa	22.161
418.2 kPa	22.524
427.2 kPa	23.019
456.1 kPa	24.636
465.8 kPa	25.243
475.9 kPa	25.82
485.6 kPa	26.38
494.8 kPa	26.85
499.7 kPa	27.22
504.9 kPa	27.48
509.8 kPa	27.78
514.2 kPa	28
524.1 kPa	28.5
533.5 kPa	29.18
538.4 kPa	29.45
545.1 kPa	30
567 kPa	31.29
590.2 kPa	32.66
613.6 kPa	34.14
636.8 kPa	35.5
660.1 kPa	36.92
683.4 kPa	38.37
706.6 kPa	39.74
729.7 kPa	41.24
752.5 kPa	42.62
775.3 kPa	44.06
796.9 kPa	45.46
816.7 kPa	46.73
836 kPa	47.99
854.6 kPa	49.09
872.3 kPa	50.27
890.1 kPa	51.44
907.5 kPa	52.57
924.8 kPa	53.65
942.1 kPa	54.86
975.7 kPa	57.1
992.2 kPa	58.29
1023.7 kPa	60.42
1038.9 kPa	61.48
1054.5 kPa	62.56
1070 kPa	63.66
1085.8 kPa	64.72
1101.6 kPa	65.79
1116.8 kPa	66.89
1131.5 kPa	67.98
1146.8 kPa	69
1161.5 kPa	70.08
1205.5 kPa	73.34
1219.6 kPa	74.41
1247.6 kPa	76.44
1261.7 kPa	77.55
1275.7 kPa	78.61
1303.4 kPa	80.62
1330.3 kPa	82.8
1356.9 kPa	84.86
1383.3 kPa	86.96
1408.9 kPa	88.93
1434.2 kPa	91.01
1459.3 kPa	93.02
1483.9 kPa	95.18
1508 kPa	97.12
1531.3 kPa	99.1
1554.6 kPa	101.06
1577.1 kPa	102.97
1599.7 kPa	105.06
1621.5 kPa	106.97
1643.3 kPa	108.91
1664 kPa	110.78
1684.8 kPa	112.72
1705.1 kPa	114.65
1725.3 kPa	116.53
1745.4 kPa	118.38
1764.4 kPa	120.27
1783 kPa	122.06
1801.8 kPa	123.93
1819.8 kPa	125.68
1837.5 kPa	127.52
1854.8 kPa	129.26
1871.7 kPa	131.01
1887.6 kPa	132.69
1901.9 kPa	134.3
1921.8 kPa	136.34
1936 kPa	137.88
1955.9 kPa	140.04
1970.5 kPa	141.59
1990.1 kPa	143.83
2027.5 kPa	148.08
2047 kPa	150.4
2061 kPa	152.1
2079.9 kPa	154.31
2102.5 kPa	157.14
2119.5 kPa	159.22
2136.1 kPa	161.36
2152.9 kPa	163.58
2175.2 kPa	166.51
2194.7 kPa	169.1
2217.5 kPa	172.27
2237.1 kPa	175.05
2258.4 kPa	178.08
2276.1 kPa	180.72
2293.5 kPa	183.23
2310.9 kPa	185.85
2329.3 kPa	188.76
2343.8 kPa	191.1
2361 kPa	193.93
2378.6 kPa	196.85
2393.5 kPa	199.32
2410.2 kPa	202.31
2428.4 kPa	205.51
2442.4 kPa	208.12
2463 kPa	211.98
2479.5 kPa	215.15
2502.3 kPa	219.78
2520.3 kPa	223.6
2540.4 kPa	228.04
2560 kPa	232.39
2575.6 kPa	236.13
